From BindingDB's records for doi:10.1021/ja0277226 (Millennium Pharmaceuticals, 2002) come the findings set out here.

Experiment [1] concerns the target Angiotensin-converting enzyme 2 (Homo sapiens, UniProt Q9BYF1). Nature of the experiment: Enzyme Inhibition Assay. As to conditions: pH 6.5; 22 °C. The protocol: (§1) Enzyme assay was conducted in 384-well microplates format. Activity was monitored by measuring increase in fluorescence (excitation @320 nm, emission @405 nm) over a 60 minute time course using a BMG Polarstar Galaxy fluorescent plate reader. Compound IC50 values were determined using 10-pt concentration ranges. Rates of substrate hydrolysis were determined from time courses and converted to percent inhibition. Percent inhibition was plotted versus compound concentration and fit to the four parameter logistic equation by non-linear regression using Prism Graphpad software.

In experiment [2] the target is T1, Angiotensin-converting enzyme (Sus scrofa, UniProt A1YQ85).
T1 sequence (A1YQ85 whole entry): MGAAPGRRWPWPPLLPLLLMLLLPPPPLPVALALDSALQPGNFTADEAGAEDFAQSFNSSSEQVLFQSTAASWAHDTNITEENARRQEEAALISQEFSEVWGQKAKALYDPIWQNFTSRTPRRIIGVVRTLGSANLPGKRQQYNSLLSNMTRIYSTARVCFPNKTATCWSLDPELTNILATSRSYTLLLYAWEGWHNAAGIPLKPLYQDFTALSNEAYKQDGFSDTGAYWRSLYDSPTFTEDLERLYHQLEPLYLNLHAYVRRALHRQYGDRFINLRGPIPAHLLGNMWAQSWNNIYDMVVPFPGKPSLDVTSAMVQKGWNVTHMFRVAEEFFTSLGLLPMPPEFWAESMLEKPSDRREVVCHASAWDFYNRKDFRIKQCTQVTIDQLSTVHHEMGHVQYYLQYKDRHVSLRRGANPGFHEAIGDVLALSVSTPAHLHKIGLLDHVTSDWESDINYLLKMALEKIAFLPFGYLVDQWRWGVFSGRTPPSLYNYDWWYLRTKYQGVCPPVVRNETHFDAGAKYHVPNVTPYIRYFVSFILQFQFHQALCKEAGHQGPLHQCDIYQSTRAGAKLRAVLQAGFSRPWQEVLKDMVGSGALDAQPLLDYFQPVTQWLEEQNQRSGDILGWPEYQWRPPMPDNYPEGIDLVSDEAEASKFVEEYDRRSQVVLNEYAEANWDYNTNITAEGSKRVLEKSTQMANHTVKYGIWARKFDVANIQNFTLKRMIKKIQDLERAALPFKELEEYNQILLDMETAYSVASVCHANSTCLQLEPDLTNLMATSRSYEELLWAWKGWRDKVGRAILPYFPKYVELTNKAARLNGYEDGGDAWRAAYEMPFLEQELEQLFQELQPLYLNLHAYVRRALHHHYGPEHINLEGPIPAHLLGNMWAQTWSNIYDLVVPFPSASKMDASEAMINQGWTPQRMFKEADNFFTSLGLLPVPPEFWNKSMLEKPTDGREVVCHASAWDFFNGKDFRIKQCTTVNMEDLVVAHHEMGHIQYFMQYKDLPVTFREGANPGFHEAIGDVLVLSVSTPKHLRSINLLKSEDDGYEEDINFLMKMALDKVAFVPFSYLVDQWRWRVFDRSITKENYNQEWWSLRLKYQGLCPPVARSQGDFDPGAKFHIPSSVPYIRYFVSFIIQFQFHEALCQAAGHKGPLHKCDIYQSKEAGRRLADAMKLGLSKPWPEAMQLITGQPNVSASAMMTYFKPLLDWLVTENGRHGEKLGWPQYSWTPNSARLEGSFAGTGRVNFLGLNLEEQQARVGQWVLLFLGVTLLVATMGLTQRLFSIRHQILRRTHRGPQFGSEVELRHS
In words: Enzyme Inhibition Assay. As to conditions: pH 7.5; 22 °C. On the procedure: as §1

The target in the next experiment is T2, Carboxypeptidase A1 (Bos taurus, UniProt P00730).
T2 sequence (P00730 whole entry): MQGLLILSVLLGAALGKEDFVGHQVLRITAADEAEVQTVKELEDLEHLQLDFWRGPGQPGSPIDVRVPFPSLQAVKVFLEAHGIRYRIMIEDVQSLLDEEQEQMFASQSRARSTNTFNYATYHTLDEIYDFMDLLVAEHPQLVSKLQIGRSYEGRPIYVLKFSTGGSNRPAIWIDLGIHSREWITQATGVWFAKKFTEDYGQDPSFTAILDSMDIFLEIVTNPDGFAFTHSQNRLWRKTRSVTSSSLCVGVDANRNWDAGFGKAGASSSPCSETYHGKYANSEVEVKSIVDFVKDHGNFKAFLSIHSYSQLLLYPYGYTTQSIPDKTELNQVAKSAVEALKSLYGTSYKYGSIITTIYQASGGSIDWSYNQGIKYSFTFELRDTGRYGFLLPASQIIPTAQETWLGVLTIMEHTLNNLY
In words: CPA Inhibition Assay. As to conditions: pH 7.5; 22 °C. On the procedure: Assay for the inhibition of carboxypeptidase A (CPDA) was conducted in 96-well microplates format. Activity was monitored by measuring decrease in absorbance (328 nm) over a 15 minute time course using a Spectromax 250 absorbance plate reader. Compound IC50 values were determined using 10-pt concentration ranges. Rates of substrate hydrolysis were determined from time courses and converted to percent inhibition. Percent inhibition was plotted versus compound concentration and fit to the four parameter logistic equation by non-linear regression using Prism Graphpad software.

Angiotensin-converting enzyme 2, sequence (Q9BYF1 whole entry): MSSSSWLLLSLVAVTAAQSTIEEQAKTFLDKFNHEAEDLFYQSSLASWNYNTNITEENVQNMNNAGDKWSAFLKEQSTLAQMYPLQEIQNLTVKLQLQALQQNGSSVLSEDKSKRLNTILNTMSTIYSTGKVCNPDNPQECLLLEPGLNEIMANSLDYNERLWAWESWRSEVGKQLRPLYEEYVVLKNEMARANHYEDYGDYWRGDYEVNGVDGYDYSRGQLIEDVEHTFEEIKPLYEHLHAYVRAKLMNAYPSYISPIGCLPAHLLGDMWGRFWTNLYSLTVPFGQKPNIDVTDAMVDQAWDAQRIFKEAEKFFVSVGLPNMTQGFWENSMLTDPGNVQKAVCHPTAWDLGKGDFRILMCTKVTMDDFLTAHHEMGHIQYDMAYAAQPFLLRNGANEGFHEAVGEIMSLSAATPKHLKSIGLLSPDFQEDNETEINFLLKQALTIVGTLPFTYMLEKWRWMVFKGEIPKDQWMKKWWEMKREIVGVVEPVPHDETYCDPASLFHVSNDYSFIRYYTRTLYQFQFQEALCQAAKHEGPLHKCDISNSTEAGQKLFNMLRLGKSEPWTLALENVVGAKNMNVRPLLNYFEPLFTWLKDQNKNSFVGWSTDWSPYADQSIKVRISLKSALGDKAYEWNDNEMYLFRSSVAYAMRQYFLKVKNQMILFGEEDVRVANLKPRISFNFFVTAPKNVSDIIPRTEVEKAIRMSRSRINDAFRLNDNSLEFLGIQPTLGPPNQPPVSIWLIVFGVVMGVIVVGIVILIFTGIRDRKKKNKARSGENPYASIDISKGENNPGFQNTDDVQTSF

`CC(C)C[C@H](N[C@@H](Cc1cncn1Cc1ccc(OC(F)(F)F)cc1)C(=O)O)C(=O)O` [(2S)-2-{[(1S)-1-carboxy-2-(1-{[4-(trifluoromethoxy)phenyl]methyl}-1H-imidazol-5-yl)ethyl]amino}-4-methylpentanoic acid] yielded an IC50 in experiment [1] of 52 nM.

For the molecule `CC(C)C[C@H](N[C@@H](Cc1cncn1C(C)(C)C1CCCCC1)C(=O)O)C(=O)O` [(2S)-2-{[(1S)-1-carboxy-2-[1-(2-cyclohexylpropan-2-yl)-1H-imidazol-5-yl]ethyl]amino}-4-methylpentanoic acid], the IC50 is greater than 10000 nM in experiment [2], 10 nM in experiment [1] and 12000 nM on Carboxypeptidase A1.

For `CC(C)C[C@H](N[C@@H](Cc1cncn1CC1CCCCC1)C(=O)O)C(=O)O` [(2S)-2-{[(1S)-1-carboxy-2-[1-(cyclohexylmethyl)-1H-imidazol-5-yl]ethyl]amino}-4-methylpentanoic acid], the IC50 in experiment [1] was 270 nM.

The molecule `Cc1ccccc1Cn1cncc1C[C@H](N[C@@H](CC(C)C)C(=O)O)C(=O)O` [(2S)-2-{[(1S)-1-carboxy-2-{1-[(2-methylphenyl)methyl]-1H-imidazol-5-yl}ethyl]amino}-4-methylpentanoic acid] gave an IC50 in experiment [1] of 290 nM.

Regarding `Cc1ccc(Cn2cncc2C[C@H](N[C@@H](CC(C)C)C(=O)O)C(=O)O)cc1C` [(2S)-2-{[(1S)-1-carboxy-2-{1-[(3,4-dimethylphenyl)methyl]-1H-imidazol-5-yl}ethyl]amino}-4-methylpentanoic acid], the IC50 is greater than 10000 nM in experiment [2], 10 nM in experiment [1] and greater than 10000 nM on Carboxypeptidase A1.

Take `Cc1cc(C)cc(Cn2cncc2C[C@H](N[C@@H](CC(C)C)C(=O)O)C(=O)O)c1` [(2S)-2-{[(1S)-1-carboxy-2-{1-[(3,5-dimethylphenyl)methyl]-1H-imidazol-5-yl}ethyl]amino}-4-methylpentanoic acid]: the IC50 in experiment [2] is greater than 10000 nM; in experiment [1] it was 1.4 nM; at Carboxypeptidase A1, greater than 10000 nM.

With `Cc1cccc(Cn2cncc2C[C@H](N[C@@H](CC(C)C)C(=O)O)C(=O)O)c1` [(2S)-2-{[(1S)-1-carboxy-2-{1-[(3-methylphenyl)methyl]-1H-imidazol-5-yl}ethyl]amino}-4-methylpentanoic acid], the IC50 in experiment [2] is greater than 10000 nM; in experiment [1] it was 4.2 nM; at Carboxypeptidase A1, greater than 10000 nM.

On to `CC(C)C[C@H](N[C@@H](Cc1cncn1Cc1ccc(Cl)cc1)C(=O)O)C(=O)O` [(2S)-2-{[(1S)-1-carboxy-2-{1-[(4-chlorophenyl)methyl]-1H-imidazol-5-yl}ethyl]amino}-4-methylpentanoic acid], for which the IC50 is 21 nM in experiment [1] and greater than 10000 nM against Carboxypeptidase A1.

With `Cc1ccc(Cn2cncc2C[C@H](N[C@@H](CC(C)C)C(=O)O)C(=O)O)cc1` [(2S)-2-{[(1S)-1-carboxy-2-{1-[(4-methylphenyl)methyl]-1H-imidazol-5-yl}ethyl]amino}-4-methylpentanoic acid], the results for the IC50 (in experiment [2]; in experiment [1]; against Carboxypeptidase A1) were greater than 10000 nM, 32 nM and greater than 10000 nM, respectively.

With `CC(C)C[C@H](N[C@@H](Cc1cncn1Cc1ccc([N+](=O)[O-])cc1)C(=O)O)C(=O)O` [(2S)-2-{[(1S)-1-carboxy-2-{1-[(4-nitrophenyl)methyl]-1H-imidazol-5-yl}ethyl]amino}-4-methylpentanoic acid], the IC50 in experiment [1] was 76 nM.

Molecule `O=C(O)[C@H](Cc1ccccc1)N[C@@H](Cc1cncn1Cc1ccccc1)C(=O)O` [(2S)-2-{[(1S)-2-(1-benzyl-1H-imidazol-5-yl)-1-carboxyethyl]amino}-3-phenylpropanoic acid] came in with an IC50 in experiment [1] of 340 nM.

`CC[C@H](N[C@@H](Cc1cncn1Cc1ccccc1)C(=O)O)C(=O)O` [(2S)-2-{[(1S)-2-(1-benzyl-1H-imidazol-5-yl)-1-carboxyethyl]amino}butanoic acid]: the IC50 in experiment [1] came to 300 nM; on Carboxypeptidase A1, 2800 nM.

As for `CC(C)C[C@H](N[C@@H](Cc1cncn1Cc1cc(Cl)cc(Cl)c1)C(=O)O)C(=O)O` [MLN4760], the IC50 in experiment [2] is greater than 100000 nM; in experiment [1], 0.44 nM; against Carboxypeptidase A1 it was 27000 nM.

The IC50 is the midpoint of a concentration-inhibition curve. A low value points to inhibition by little substance.
